# According to article PMC7616177, “From structure to clinic: Design of a muscarinic M1 receptor agonist with the potential to treat Alzheimer’s disease” (Cell, 2021):
# How the values were obtained:
# human M1 receptor [1] = molecular target: T1, human M1 receptor (Homo sapiens, UniProt P11229); experiment: M1-receptor functional agonist assays (pERK1/2 and calcium mobilisation) for hits and SAR; format: cell-based
# T1 construct: expressed in transfected cells
# T1 sequence (P11229 1-460): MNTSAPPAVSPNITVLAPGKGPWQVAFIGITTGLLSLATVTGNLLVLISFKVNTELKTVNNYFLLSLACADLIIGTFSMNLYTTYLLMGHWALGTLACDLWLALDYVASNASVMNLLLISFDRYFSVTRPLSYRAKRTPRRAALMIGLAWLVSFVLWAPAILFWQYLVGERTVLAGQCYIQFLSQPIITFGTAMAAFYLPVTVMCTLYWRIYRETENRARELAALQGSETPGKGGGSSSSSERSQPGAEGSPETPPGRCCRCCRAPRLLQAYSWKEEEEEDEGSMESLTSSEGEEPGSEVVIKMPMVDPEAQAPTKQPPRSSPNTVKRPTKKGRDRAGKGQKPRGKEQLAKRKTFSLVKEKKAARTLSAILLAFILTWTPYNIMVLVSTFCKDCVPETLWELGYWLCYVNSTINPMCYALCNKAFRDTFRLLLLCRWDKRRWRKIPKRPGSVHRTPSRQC
# M3-receptor = molecular target: T2, M3-receptor (Homo sapiens, UniProt P20309); experiment: M3-receptor functional agonist assay; format: cell-based
# T2 construct: expressed in transfected cells
# T2 sequence (P20309 whole entry): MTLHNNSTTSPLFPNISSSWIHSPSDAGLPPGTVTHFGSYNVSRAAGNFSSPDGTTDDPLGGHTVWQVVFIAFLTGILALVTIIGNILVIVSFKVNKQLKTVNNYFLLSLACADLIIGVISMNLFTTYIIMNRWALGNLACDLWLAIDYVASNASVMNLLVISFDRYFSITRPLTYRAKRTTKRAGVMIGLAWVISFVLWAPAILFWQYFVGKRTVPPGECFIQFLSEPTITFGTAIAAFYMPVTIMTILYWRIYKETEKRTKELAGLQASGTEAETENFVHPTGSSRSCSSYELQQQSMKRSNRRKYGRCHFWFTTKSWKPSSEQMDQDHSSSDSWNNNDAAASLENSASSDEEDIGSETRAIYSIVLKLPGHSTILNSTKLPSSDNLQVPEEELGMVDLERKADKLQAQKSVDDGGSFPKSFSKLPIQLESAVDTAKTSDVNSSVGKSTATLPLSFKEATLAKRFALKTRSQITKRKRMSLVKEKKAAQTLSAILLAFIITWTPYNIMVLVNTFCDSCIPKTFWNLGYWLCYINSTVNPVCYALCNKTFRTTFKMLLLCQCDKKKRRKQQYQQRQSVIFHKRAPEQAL
# Experimental: Functional assays were performed using the Alphascreen Surefire phopho-ERK1/2 assay. […] Once adhered, cells were serum starved overnight. Agonist stimulation was performed by the addition of […] agonist to the cells for a pre-optimized 5 min period (37°C). Media was removed and 50 μl of lysis buffer added. After 15 min a 4 μl sample was transferred to a 384-well plate and 7 μl of detection mixture added.
# human M1 receptor [2] = molecular target: T1, human M1 receptor; experiment: Inositol phosphate (IP1) accumulation in CHO Flp-In cells; format: cell-based
# panel of 62 GPCRs = experiment: DiscoverX neurological and psychiatric GPCR selectivity panel; format: cell-based; conditions: 10 μM
# Wistar rats = experiment: Scopolamine-induced amnesia in passive avoidance; format: in vivo, rat
# Experimental: Male adult Wistar rats (Harlan, UK; approximately 11 weeks of age) were acclimatised to the experimental rooms for three days (study days 1-3) and handled for a further two days (study days 4 and 5) prior to the experiment.
# Donepezil (0.01 and 0.1 mg/kg) was administered via intraperitoneal injection (in saline) 60 min prior to training. Rats were trained in a single-trial, step-through, light-dark passive avoidance paradigm. The training apparatus consisted of a chamber 300 mm in length, 260 mm wide, and 270 mm in height. The front and top were transparent, allowing the experimenter to observe the behavior of the animal inside the apparatus. The chamber was divided into two compartments, separated by a central shutter that contained a small opening (50 mm wide and 75 mm high) set close to the front of the chamber. The smaller of the compartments measured 90 mm in width and contained a low-light (~200 lux) illumination source. The larger compartment measured 210 mm in width and was not illuminated. The floor of this dark compartment consisted of a grid of 16 horizontal stainless-steel bars that were 5 mm in diameter and spaced 12.5 mm apart. A current generator supplied 0.75 mA to the grid floor, which was scrambled once every 0.5 s across the 16 bars.
# Animals were placed facing the rear of the light compartment of the apparatus, immediately after which, spontaneous behavior was assessed. The timer was started once the animal completely turned to face the front of the chamber. Latency to enter the dark chamber was recorded, and having completely entered the dark compartment foot shock was administered to the animal, which immediately returned to the light compartment. Animals were then returned to their home cages. Between each training session, both compartments of the chamber were cleaned to remove any confounding olfactory cues. Vehicle (saline) or scopolamine (1 mg/kg) was administered to rats 6 hours after training. Recall of the inhibitory stimulus was evaluated 24 hour post-training on study day 7, by returning the animal into the light chamber and recording their latency to enter the dark chamber, a criterion time of 600 s was employed. Observation of the animals was made by overhead video camera linked to a monitor behind a screened area. Animal treatment was blinded to the observer.
# [3] = system: Tg37 hemizygous mice inoculated with RML prions; format: in vivo, mouse; conditions: prion mice 9 w.p.i., 30 mg/kg i.p., 24 h after training
# aged beagle dogs = experiment: Delayed non-matching to position (DNMP) in aged beagle dogs; format: in vivo, dog; conditions: aged beagles
# Experimental: Animals were acclimatised in the testing facility for at least 3 months. During baseline days (days −12 to −8), 50 dogs underwent DNMP testing once daily using delays of 20 and 90 s equally dispersed over 12 trials per session.
# These 40 subjects were tested on the DNMP using delays of 5, 55 and 105 s equally dispersed over 18 trials per session over five once-daily sessions (days −6 to −2). Therefore, baseline testing was conducted for a total of 10 days.
# These dogs were then allocated into 5 groups, balanced for mean baseline performance accuracy at the longest delays (n = 8 per group). […] Daily treatment administration began on day 0, and dogs were tested once daily on the DNMP at the same delays employed at baseline for a minimum of 10 days. Each test consisted of two phases; in phase one, the dog is presented with an object over one of the three food wells. After the dog moves the object and obtains the food reward beneath, the tray is removed from the dog’s sight and the delay is initiated. The second phase occurs after the delay and consists of presenting the dog with two identical objects to that used in the first phase. One is in the same position as the first phase and the other covers a food reward in one of the two remaining food wells.
# [4] = Modified Irwin Functional Observation Battery; format: in vivo; conditions: plasma; rat, 100 mg/kg oral
# rats [5] = experiment: Modified Irwin Functional Observation Battery; format: in vivo; conditions: rat
# rats [6] = experiment: Safety pharmacology and toxicology clinical signs, rat; format: in vivo
# Source text: The rat and dog were appropriate species in which to conduct nonclinical safety evaluation and HTL9936. Male and female rates of the RccHan: WIST strain were obtained from Harlan, Bicester, UK. and the animals were approximately seven to eight weeks old at the start of dosing. Throughout the study the animals had access ad libitum to SQC Rat and Mouse Maintenance Diet No 1, Expanded, (Special Diets Services Ltd, Witham, UK). […] The temperature and relative humidity ranges were maintained in the specified ranges of 20 to 24°C and 45 to 65%, respectively.
# [7] = 4-day repeat dose tolerability assessment in dogs; conditions: beagle, dog
# dogs = experiment: GLP cardiovascular safety pharmacology telemetry in dogs
structure (smiles),measurement,setting,value
"CCOC(=O)N1CCC[C@H](N2CCC(C(=O)NC3(C)CCC3)CC2)CC1 [HTL9936, ethyl (S)-4-(4-((1-methylcyclobutyl)carbamoyl)piperidin-1-yl)azepane-1-carboxylate]",EC50,human M1 receptor [1],32 nM
same,EC50,M3-receptor,> 20000 nM
same,M3-receptor agonist activity,M3-receptor,no detectable agonism
same,EC50,human M1 receptor [2],631 nM
same,Agonism at other receptors,panel of 62 GPCRs,< 25%
same,Maximal response compared with donepezil 0.1 mg/kg,Wistar rats; rat passive avoidance,equivalent to that obtained using the clinically approved acetylcholinesterase inhibitor donepezil
same,Response alone,"Wistar rats; rat passive avoidance, HTL9936 3 mg/kg",no response alone
same,Effect on scopolamine-induced amnesia,"Wistar rats; rat, 3, 10 or 30 mg/kg p.o., scopolamine 1 mg/kg i.p.",reversed in a dose-dependent manner
same,Immobility level on re-exposure to training environment,[3],~ 34%
same,Visual-spatial memory (DNMP performance),aged beagle dogs; 0.3 mg/kg and 1 mg/kg s.c.,Significant improvements in visual-spatial memory
same,Effect compared with donepezil,aged beagle dogs; 1 mg/kg s.c.,equivalent to that of donepezil
same,Cmax,[4],6400 ng/mL
same,"Cu,pl",rats [5]; 100 mg/kg oral,"11,994 nM"
same,Seizure-like effects,rats [5]; oral dosing up to 100 mg/kg,complete absence of seizure-like effects
same,"Cu,pl without cholinergic clinical signs",rats [6],"1,372 nM"
same,Plasma exposure without cholinergic clinical signs,rats [6],up to 732 ng/mL
same,Cmax at 4 day,[7]; plasma,> 32000 ng/mL
same,concentration at 4 day,[7]; plasma (unbound),60 µM
same,Time for hemodynamic changes to return to control levels after end of i.v. infusion,dogs; dogs,≤ 30 min
same,Blood pressure and heart rate,"dogs; telemetered dogs, i.v. infusion","dose-dependent profile of HTL9936 effects on blood pressure, but not heart rate"
